In one data set the target is T1, IL-23R (Homo sapiens, UniProt Q5VWK5).
T1 construct: host or cells: HEK293
T1 sequence (Q5VWK5 24-629): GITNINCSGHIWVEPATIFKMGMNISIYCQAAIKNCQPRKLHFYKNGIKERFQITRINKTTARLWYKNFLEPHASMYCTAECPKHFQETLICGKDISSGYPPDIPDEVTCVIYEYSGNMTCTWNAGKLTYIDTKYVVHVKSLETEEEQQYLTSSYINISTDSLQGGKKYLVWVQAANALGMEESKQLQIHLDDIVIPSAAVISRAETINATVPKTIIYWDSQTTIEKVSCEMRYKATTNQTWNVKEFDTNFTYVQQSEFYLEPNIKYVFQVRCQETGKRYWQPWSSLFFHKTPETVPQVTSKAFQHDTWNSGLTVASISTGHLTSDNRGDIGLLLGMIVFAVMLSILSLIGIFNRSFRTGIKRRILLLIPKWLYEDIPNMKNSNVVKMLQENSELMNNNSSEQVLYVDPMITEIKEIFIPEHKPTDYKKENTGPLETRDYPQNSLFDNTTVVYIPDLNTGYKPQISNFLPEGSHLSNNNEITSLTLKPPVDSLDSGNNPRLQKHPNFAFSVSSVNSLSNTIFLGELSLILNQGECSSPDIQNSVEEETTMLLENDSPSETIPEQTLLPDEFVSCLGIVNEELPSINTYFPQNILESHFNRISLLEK
Kind of data set: IL23R Reporter Assay. As to conditions: HEK293 cells containing IL-23R, IL-12RP1 and STAT-inducible firefly luciferase reporter; 10 ng/mL IL-23 (EC90); 5 h at 37° C.; read-out: IL23R Reporter Assay. Type of data set: cell-based. In general terms: In a reporter assay the amount or activity of a reporter protein is the signal.

A short description of data set [1]: Exposed Polar Surface Area (EPSA). The format is physicochemical. Particulars: SFC on Chirex 3014 column; sample 1 mM DMSO stock; read-out: EPSA. The procedure, abridged:
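Compounds, as 1 mM DMSO stock, were injected in duplicate onto an SFC Chirex 3014 column at 35 °C and eluted with a CO2/methanol (20 mM ammonium formate) gradient. EPSA values in Å^2 were derived from retention times using a linear fit to eight calibration standards, reinjected every 20 compounds.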

Starred links: 1 amine or outer side, 2 acyl side, 3 side chain; linkers in the order of their positions; H or OH if unused. Positions of bridges follow the written chain, without caps; N, C: chain ends. Non-standard residues stand in square brackets, D forms with d. Residues, ends and D or L forms follow the SMILES beside them. *: point of attachment. Me3N+(CH2)2O(CH2)2O(CH2)2CO = C[N+](C)(C)CCOCCOCCC(=O)*; X39 = NCCc1cn(-c2ccc(C[C@H](N[*:1])C(=O)[*:2])cc2)nn1; Trp(7-Me) = Cc1cccc2c(C[C@H](N)C(=O)O)c[nH]c12; Abu(4-yl) = O=C([C@H](CC[*:3])N[*:1])[*:2]; dLys(Me3) = C[N+](C)(C)CCCC[C@@H](N)C(=O)O; 3Pal(5-Me) = Cc1cncc(C[C@H](N)C(=O)O)c1; 2Nal = N[C@@H](Cc1ccc2ccccc2c1)C(=O)O; AEF = NCCOc1ccc(C[C@H](N)C(=O)O)cc1; 3Pal = N[C@@H](Cc1cccnc1)C(=O)O; Lys(Me) = CNCCCC[C@H](N)C(=O)O; Pen = CC(C)(S)[C@H](N)C(=O)O; Thp = NC1(C(=O)O)CCOCC1; X3 = C[N+](C)(C)CCCCC*; Sar = CNCC(=O)O; X58 = NCCCCC*

As to `CC(=O)NCCCC[C@@H]1NC(=O)[C@H](Cc2c[nH]c3c(C)cccc23)NC(=O)[C@H]([C@@H](C)O)NC(=O)[C@H](CC(N)=O)NC(=O)[C@@H](NC(=O)CCOCCOCC[N+](C)(C)C)C(C)(C)SSC(C)(C)[C@@H](C(=O)N[C@@H](Cc2ccc(-n3cc(CCN)nn3)cc2)C(=O)N[C@@H](Cc2ccc3ccccc3c2)C(=O)NC2(C(=O)N[C@@H](CCCCNC(C)=O)C(=O)N[C@@H](CC(N)=O)C(=O)N[C@@H](Cc3cccnc3)C(=O)N(C)CC(N)=O)CCOCC2)NC1=O` [compound 522, cPEG3aCO-Pen(3)-N-T-7MeW-K(Ac)-Pen(3)-F(4TzlAme2)-2Nal-THP-K(Ac)-N-3Pya-Sar-CONH2] ({Me3N+(CH2)2O(CH2)2O(CH2)2CO}-[Pen]NT[Trp(7-Me)]K(Ac)[Pen][X39][2Nal][Thp]K(Ac)N[3Pal][Sar]-NH2; disulfide 1-6), the IC50 on IL-23R came to 1.6 nM. Moreover, the EPSA in data set [1] is 176 A^2.
On the same counts, the results for `CC(=O)N(C)CCCC[C@@H]1NC(=O)[C@H](Cc2c[nH]c3c(C)cccc23)NC(=O)[C@H]([C@@H](C)O)NC(=O)[C@H](CC(=O)N(C)C)NC(=O)[C@@H](NC(=O)CCOCCOCC[N+](C)(C)C)CCSC[C@@H](C(=O)N[C@@H](Cc2ccc(OCCCCC[N+](C)(C)C)cc2)C(=O)N[C@@H](Cc2ccc3ccccc3c2)C(=O)NC2(C(=O)N[C@@H](CCCCN(C)C(C)=O)C(=O)N[C@@H](CC(N)=O)C(=O)N[C@@H](Cc3cccnc3)C(=O)N(C)CC(=O)N(C)C)CCOCC2)NC1=O` [compound 523, cPEG3aCO-Abu(1)-N(N(Me)2)-T-7MeW-K(NMeAc)-C(1)-TMAPF-2Nal-THP-K(NMeAc)-N-3Pya-Sar-CON(Me)2] ({Me3N+(CH2)2O(CH2)2O(CH2)2CO}-[Abu(4-yl)]D(NMe2)T[Trp(7-Me)][Lys(Me)](Ac)CY(X3)[2Nal][Thp][Lys(Me)](Ac)N[3Pal][Sar]-NMe2; thioether 1-6) are 5.2 nM and 154 A^2.
Regarding `CC(=O)NCCCC[C@@H]1NC(=O)[C@H](Cc2c[nH]c3c(C)cccc23)NC(=O)[C@H]([C@@H](C)O)NC(=O)[C@H](CC(N)=O)NC(=O)[C@@H](NC(=O)COc2ccc(-c3ccc(F)cc3F)cc2C(=O)O)C(C)(C)SSC(C)(C)[C@@H](C(=O)N[C@@H](Cc2ccc(OCCCCC[N+](C)(C)C)cc2)C(=O)N[C@@H](Cc2ccc3ccccc3c2)C(=O)NC2(C(=O)N[C@@H](CCCCNC(=O)CCCc3ccc(I)cc3)C(=O)N[C@@H](CC(N)=O)C(=O)N[C@@H](Cc3cccnc3)C(=O)N(C)CC(N)=O)CCOCC2)NC1=O` [compound 524, DFNCO-Pen(3)-N-T-7MeW-K(Ac)-Pen(3)-TMAPF-2Nal-THP-K(IPB)-N-3Pya-Sar-CONH2], at IL-23R, the IC50 came to 54 nM. The EPSA in data set [1] came out at 198 A^2.
As to `CC(=O)NCCCC[C@@H]1NC(=O)[C@H](Cc2c[nH]c3c(C)cccc23)NC(=O)[C@H]([C@@H](C)O)NC(=O)[C@H](CC(N)=O)NC(=O)[C@@H](NC(=O)CCCc2ccc(I)cc2)C(C)(C)SSC(C)(C)[C@@H](C(=O)N[C@@H](Cc2ccc(OCCCCC[N+](C)(C)C)cc2)C(=O)N[C@@H](Cc2ccc3ccccc3c2)C(=O)NC2(C(=O)N[C@@H](CCCCNC(=O)COc3ccc(-c4ccc(F)cc4F)cc3C(=O)O)C(=O)N[C@@H](CC(N)=O)C(=O)N[C@@H](Cc3cccnc3)C(=O)N(C)CC(N)=O)CCOCC2)NC1=O` [compound 525, IPBCO-Pen(3)-N-T-7MeW-K(Ac)-Pen(3)-TMAPF-2Nal-THP-K(DFN)-N-3Pya-Sar-CONH2], on IL-23R, the IC50 came to 51 nM. Moreover, in data set [1], the EPSA turned out to be 195 A^2.
Take `CC(=O)NCCCC[C@@H]1NC(=O)[C@H](Cc2c[nH]c3c(C)cccc23)NC(=O)[C@H]([C@@H](C)O)NC(=O)[C@H](CC(N)=O)NC(=O)[C@@H](NC(C)=O)C(C)(C)SSC(C)(C)[C@@H](C(=O)N[C@@H](Cc2ccc(OCCCCC[N+](C)(C)C)cc2)C(=O)N[C@@H](Cc2ccc3ccccc3c2)C(=O)NC2(C(=O)N[C@@H](CCCCNC(=O)COc3ccc(-c4ccc(F)cc4F)cc3C(=O)O)C(=O)N[C@@H](CC(N)=O)C(=O)N[C@@H](Cc3cccnc3)C(=O)N(C)CC(N)=O)CCOCC2)NC1=O` [compound 526, MeCO-Pen(3)-N-T-7MeW-K(Ac)-Pen(3)-TMAPF-2Nal-THP-K(DFN)-N-3Pya-Sar-CONH2]: on IL-23R, the IC50 is 6.1 nM. The EPSA in data set [1] was found to be 184 A^2.
As for `CC(=O)NCCCC[C@@H]1NC(=O)[C@H](Cc2c[nH]c3c(C)cccc23)NC(=O)[C@H]([C@@H](C)O)NC(=O)[C@H](CC(N)=O)NC(=O)[C@@H](NC(=O)COc2ccc(-c3ccc(F)cc3F)cc2C(=O)O)C(C)(C)SSC(C)(C)[C@@H](C(=O)N[C@@H](Cc2ccc(OCCCCC[N+](C)(C)C)cc2)C(=O)N[C@@H](Cc2ccc3ccccc3c2)C(=O)NC2(C(=O)N[C@@H](CCCCNC(C)=O)C(=O)N[C@@H](CC(N)=O)C(=O)N[C@@H](Cc3cccnc3)C(=O)N(C)CC(N)=O)CCOCC2)NC1=O` [compound 527, DFNCO-Pen(3)-N-T-7MeW-K(Ac)-Pen(3)-TMAPF-2Nal-THP-K(Ac)-N-3Pya-Sar-CONH2], on IL-23R, the IC50 stood at 3.7 nM. For the same compound, in data set [1], the EPSA came to 189 A^2.
For the compound `CC(=O)N(C)CCCC[C@@H]1NC(=O)[C@H](Cc2c[nH]c3c(C)cccc23)NC(=O)[C@H]([C@@H](C)O)NC(=O)[C@H](CC(=O)N(C)C)NC(=O)[C@@H](NC(=O)CCOCCOCC[N+](C)(C)C)C(C)(C)SSC(C)(C)[C@@H](C(=O)N[C@@H](Cc2ccc(OCCCCCN)cc2)C(=O)N[C@@H](Cc2ccc3ccccc3c2)C(=O)NC2(C(=O)N[C@@H](CCCCN(C)C(C)=O)C(=O)N[C@@H](CC(N)=O)C(=O)N[C@@H](Cc3cccnc3)C(=O)N(C)CC(=O)N(C)C)CCOCC2)NC1=O` [compound 528, cPEG3aCO-Pen(3)-N(N(Me)2)-T-7MeW-K(NMeAc)-Pen(3)-APF-2Nal-THP-K(NMeAc)-N-3Pya-Sar-CON(Me)2] ({Me3N+(CH2)2O(CH2)2O(CH2)2CO}-[Pen]D(NMe2)T[Trp(7-Me)][Lys(Me)](Ac)[Pen]Y(X58)[2Nal][Thp][Lys(Me)](Ac)N[3Pal][Sar]-NMe2; disulfide 1-6), on IL-23R, the IC50 is 3.8 nM. In addition, in data set [1], the EPSA came to 163 A^2.
`CC(=O)NCCCC[C@@H]1NC(=O)[C@H](Cc2c[nH]c3c(C)cccc23)NC(=O)[C@H]([C@@H](C)O)NC(=O)[C@H](CC(N)=O)NC(=O)[C@@H](NC(=O)[C@@H](CCCNC(=N)N)NC(C)=O)C(C)(C)SSC(C)(C)[C@@H](C(=O)N[C@@H](Cc2ccc(OCCCCC[N+](C)(C)C)cc2)C(=O)N[C@@H](Cc2ccc3ccccc3c2)C(=O)NC2(C(=O)N[C@@H](CCCCNC(C)=O)C(=O)N[C@@H](CC(N)=O)C(=O)N[C@@H](Cc3cncc(C)c3)C(=O)N(C)CC(N)=O)CCOCC2)NC1=O` [compound 532, MeCO-r-Pen(3)-N-T-7MeW-K(Ac)-Pen(3)-TMAPF-2Nal-THP-K(Ac)-N-5MePyridinAla-Sar-CONH2] (Ac-[dR][Pen]NT[Trp(7-Me)]K(Ac)[Pen]Y(X3)[2Nal][Thp]K(Ac)N[3Pal(5-Me)][Sar]-NH2; disulfide 2-7): the IC50 at IL-23R is 0.9 nM. The EPSA in data set [1] is 171 A^2.
Consider `CC(=O)NCCCC[C@@H]1NC(=O)[C@H](Cc2c[nH]c3c(C)cccc23)NC(=O)[C@H]([C@@H](C)O)NC(=O)[C@H](CC(N)=O)NC(=O)[C@@H](NC(=O)[C@@H](CCCC[N+](C)(C)C)NC(C)=O)C(C)(C)SSC(C)(C)[C@@H](C(=O)N[C@@H](Cc2ccc(OCCN)cc2)C(=O)N[C@@H](Cc2ccc3ccccc3c2)C(=O)NC2(C(=O)N[C@@H](CCCCNC(C)=O)C(=O)N[C@@H](CC(N)=O)C(=O)N[C@@H](Cc3cncc(C)c3)C(=O)N(C)CC(N)=O)CCOCC2)NC1=O` [compound 533, MeCO-k(Me)3-Pen(3)-N-T-7MeW-K(Ac)-Pen(3)-AEF-2Nal-THP-K(Ac)-N-5MePyridinAla-Sar-CONH2] (Ac-[dLys(Me3)][Pen]NT[Trp(7-Me)]K(Ac)[Pen][AEF][2Nal][Thp]K(Ac)N[3Pal(5-Me)][Sar]-NH2; disulfide 2-7), for which, at IL-23R, the IC50 was found to be 1.6 nM. In data set [1], the EPSA stood at 170 A^2.
As for `CC(=O)NCCCC[C@@H]1NC(=O)[C@H](Cc2c[nH]c3c(C)cccc23)NC(=O)[C@H]([C@@H](C)O)NC(=O)[C@H](CC(N)=O)NC(=O)[C@@H](NC(=O)[C@@H](CCCC[N+](C)(C)C)NC(C)=O)C(C)(C)SSC(C)(C)[C@@H](C(=O)N[C@@H](Cc2ccc(OCCCCC[N+](C)(C)C)cc2)C(=O)N[C@@H](Cc2ccc3ccccc3c2)C(=O)NC2(C(=O)N[C@@H](CCC(=O)O)C(=O)N[C@@H](CC(N)=O)C(=O)N[C@@H](Cc3cncc(C)c3)C(=O)N(C)CC(N)=O)CCOCC2)NC1=O` [compound 534, MeCO-k(Me)3-Pen(3)-N-T-7MeW-K(Ac)-Pen(3)-TMAPF-2Nal-THP-E-N-5MePyridinAla-Sar-CONH2] (Ac-[dLys(Me3)][Pen]NT[Trp(7-Me)]K(Ac)[Pen]Y(X3)[2Nal][Thp]EN[3Pal(5-Me)][Sar]-NH2; disulfide 2-7), at IL-23R, the IC50 is 2.1 nM. For the same compound, in data set [1], the EPSA worked out at 172 A^2.
